Measurements from the CheMixHub ionic liquid set.

Test: xn = mol fraction of the nth substance listed

CCCCCCCCCCCCCCCC[n+]1ccccc1.[Cl-] + CS(C)=O + O
electrical conductivity [S/m], 100 kPa
Settings | 293.15 K | 298.15 K | 303.15 K | 308.15 K
x1 = 3.75e-06, x2 = 0.01199 | 0.0021 | 0.0024 | 0.0024 | 0.0026
x1 = 3.9e-06, x2 = 0.02499 | 0.0019 | 0.002 | 0.0023 | 0.0023
x1 = 4.07e-06, x2 = 0.03911 | 0.0015 | 0.0016 | 0.0017 | 0.0019
x1 = 4.26e-06, x2 = 0.05452 | 0.0014 | 0.0015 | 0.0017 | 0.0019
x1 = 7.5e-06, x2 = 0.01199 | 0.0037 | 0.0042 | 0.0044 | 0.0047
x1 = 7.81e-06, x2 = 0.02499 | 0.0034 | 0.0036 | 0.0041 | 0.0044
x1 = 8.15e-06, x2 = 0.03911 | – | 0.0032 | 0.0037 | 0.0041
x1 = 8.52e-06, x2 = 0.05452 | 0.0027 | 0.0029 | – | 0.0037
x1 = 1.124e-05, x2 = 0.01199 | 0.0053 | 0.006 | 0.0065 | 0.0071
x1 = 1.171e-05, x2 = 0.02499 | 0.0049 | 0.0053 | 0.0059 | 0.0065
x1 = 1.222e-05, x2 = 0.03911 | 0.0045 | 0.0048 | 0.0055 | 0.0062
x1 = 1.278e-05, x2 = 0.05452 | 0.0041 | 0.0044 | 0.0049 | 0.0055
x1 = 1.499e-05, x2 = 0.01199 | 0.0071 | 0.0078 | 0.0086 | 0.0094
x1 = 1.562e-05, x2 = 0.02499 | 0.0063 | 0.0071 | 0.0077 | 0.0089
x1 = 1.63e-05, x2 = 0.03911 | 0.006 | 0.0065 | 0.0075 | 0.0086
x1 = 1.704e-05, x2 = 0.05452 | 0.0056 | 0.0059 | 0.0066 | 0.0075
x1 = 1.874e-05, x2 = 0.01199 | 0.0085 | 0.0095 | – | –
x1 = 1.952e-05, x2 = 0.02499 | 0.0078 | 0.0088 | 0.0097 | –
x1 = 2.037e-05, x2 = 0.03911 | 0.0075 | 0.0082 | 0.0095 | –
x1 = 2.13e-05, x2 = 0.05452 | 0.0069 | 0.0075 | 0.0083 | 0.0094
x1 = 2.249e-05, x2 = 0.01199 | 0.0095 | – | – | –
x1 = 2.343e-05, x2 = 0.02499 | 0.0095 | – | – | –
x1 = 2.444e-05, x2 = 0.03911 | 0.0091 | 0.0098 | – | –
x1 = 2.556e-05, x2 = 0.05452 | 0.0082 | 0.009 | 0.01 | –
x1 = 2.981e-05, x2 = 0.05452 | 0.0092 | – | – | –

CCCCCCCCCCCC[N+](C)(C)C.[Br-] + CS(C)=O + O
298 K, 101 kPa
Settings | electrical conductivity [S/m]
x2 = 0.05957, x1 = 0.0001378 | 0.0321
x2 = 0.09776, x1 = 0.001524 | 0.181
